Assay results published in patent publication US20230321067A1, “DOSING REGIMEN COMPRISING 3-(1-OXOISOINDOLIN-2-YL)PIPERIDINE-2,6-DIONE DERIVATIVES” (Novartis AG, priority 2020, published 2023).
Where two headings read alike, the source gives them in different places.

Tests used:
IKZF2 [1] = assay: IKZF2 degradation in primary rabbit PBMCs; assay type: cell-based
Method: I-57 mediated degradation of IKZF2 was assessed in primary PBMCs obtained from rabbit, dog, pig, cynomolgus monkey, and human, and in primary splenocytes of mouse and rat. […] Species-specificity due to species specific alteration CRBN primary structure have previously been described with other compounds known to interact with the CRBN ubiquitin ligase complex to elicit protein specific degradation (Krönke et al, 2015).

[2] = Repeated daily oral dose PK in cynomolgus monkey; assay type: in vivo; conditions: unbound; for Cmax / AUC(0-t): plasma, po; for AUC(0-t): read-out: AUC0-24
Method: (§1) The PK/PD relationship of I-57 was further examined in cynomolgus monkeys after repeated daily oral doses of 0.1 and 3 mg/kg. In this study, a cohort of animals were initially immunized with an antigen-adjuvant mixture (KLH/Squalene). The experiment was designed to assess the effect of I-57 exposure, and the resulting IKZF2 degradation, on immune response during immunization to test the hypothesis that IKZF2 degradation would result in increased proliferation of stimulated T-cells. In the experiment, daily I-57 oral treatment was initiated 5 days after immunization. An immunization booster dose was administered on day 15. I-57 plasma concentration and IKZF2 expression (as determined by flow cytometry) in FOXP3+ T cells from PBMCs were determined (FIG. 9A and FIG. 9B).

IKZF2 [3] = assay: Repeated daily oral dose PD in cynomolgus monkey: IKZF2 in FOXP3+ T cells by flow cytometry; assay type: in vivo
Method: as §1
Consistent with previous findings, IKZF2 degradation was detected 24 h after the first dose (at day 6) (FIG. 9A and FIG. 9B). The levels of IKZF2 decreased further upon repeat dosing and reached a steady-state level approximately 72 h after initiation of treatment. This level of degradation was maintained throughout the remainder of the treatment (24 days).

[4] = In vivo non-clinical PK, monkey; parameters: species or system cynomolgus monkey
Method: The in vivo non-clinical PK profile of I-57 was investigated in mouse, rat, dog and cynomolgus monkey using I-57 free base. […] After p.o. administration, the absorption of I-57 was rapid with peak blood concentration (Tmax) occurring between 1 and 4 hours. […] In high dose PK and toxicology studies with I-57 the exposures in mouse, rat and monkey increased with dose.

plasma protein = assay: Plasma protein binding in vitro, rat; assay type: in vitro ADME
Source text: The binding to plasma protein of I-57 in vitro was moderate in all species, with an observed difference between rodents (73% in mouse, 76% in rat) and non-rodents (52% in dog and monkey, 54% in human). Blood-to-plasma ratios were in the range of 0.7-1.8 (human 1.1-1.3). […] Based on results with non-radiolabeled I-57 in the dog, a significant amount of unchanged I-57 was renally eliminated (˜20% of dose).

P-gp = P-gp (Homo sapiens, UniProt P08183); assay: P-gp substrate assessment; assay type: in vitro ADME
Sequence of P-gp (P08183 whole entry): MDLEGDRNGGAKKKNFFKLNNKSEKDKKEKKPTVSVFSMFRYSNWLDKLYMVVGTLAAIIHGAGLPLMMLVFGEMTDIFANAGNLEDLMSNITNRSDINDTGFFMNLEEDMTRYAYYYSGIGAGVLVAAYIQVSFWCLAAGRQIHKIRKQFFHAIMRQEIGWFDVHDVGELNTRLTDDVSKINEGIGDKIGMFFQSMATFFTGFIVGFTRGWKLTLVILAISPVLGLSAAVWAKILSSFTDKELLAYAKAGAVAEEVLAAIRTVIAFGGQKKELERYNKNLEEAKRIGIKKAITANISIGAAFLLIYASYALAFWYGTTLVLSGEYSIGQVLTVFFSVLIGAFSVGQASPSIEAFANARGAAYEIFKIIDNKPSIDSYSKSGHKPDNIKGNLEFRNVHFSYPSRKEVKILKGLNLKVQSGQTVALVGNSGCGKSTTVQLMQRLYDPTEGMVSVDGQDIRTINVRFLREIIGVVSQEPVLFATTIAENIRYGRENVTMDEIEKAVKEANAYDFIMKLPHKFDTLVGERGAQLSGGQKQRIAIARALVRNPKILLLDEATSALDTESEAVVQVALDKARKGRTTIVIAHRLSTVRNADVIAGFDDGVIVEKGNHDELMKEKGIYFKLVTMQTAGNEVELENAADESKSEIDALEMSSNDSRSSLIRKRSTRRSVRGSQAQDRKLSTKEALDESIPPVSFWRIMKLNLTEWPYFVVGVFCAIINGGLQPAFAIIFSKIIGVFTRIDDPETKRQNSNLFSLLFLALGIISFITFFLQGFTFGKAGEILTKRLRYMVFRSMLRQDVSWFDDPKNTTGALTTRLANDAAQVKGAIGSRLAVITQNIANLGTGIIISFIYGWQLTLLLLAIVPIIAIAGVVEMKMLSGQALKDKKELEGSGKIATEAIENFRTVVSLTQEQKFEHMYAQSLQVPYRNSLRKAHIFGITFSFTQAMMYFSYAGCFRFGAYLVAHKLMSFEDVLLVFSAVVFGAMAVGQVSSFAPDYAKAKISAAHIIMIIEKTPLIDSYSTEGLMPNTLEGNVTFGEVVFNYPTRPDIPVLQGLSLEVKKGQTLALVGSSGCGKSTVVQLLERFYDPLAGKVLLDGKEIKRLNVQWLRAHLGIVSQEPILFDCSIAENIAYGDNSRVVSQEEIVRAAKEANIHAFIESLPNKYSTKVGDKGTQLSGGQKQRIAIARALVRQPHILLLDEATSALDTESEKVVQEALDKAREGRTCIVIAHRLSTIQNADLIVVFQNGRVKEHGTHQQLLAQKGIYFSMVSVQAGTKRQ

CYP2C9 [5] = biological target: T1, CYP2C9 (Homo sapiens, UniProt P11712); assay: CYP inhibition: CYP2C9; assay type: in vitro ADME; conditions: I-57 concentrations of up to 100 μM
T1 sequence (P11712 whole entry): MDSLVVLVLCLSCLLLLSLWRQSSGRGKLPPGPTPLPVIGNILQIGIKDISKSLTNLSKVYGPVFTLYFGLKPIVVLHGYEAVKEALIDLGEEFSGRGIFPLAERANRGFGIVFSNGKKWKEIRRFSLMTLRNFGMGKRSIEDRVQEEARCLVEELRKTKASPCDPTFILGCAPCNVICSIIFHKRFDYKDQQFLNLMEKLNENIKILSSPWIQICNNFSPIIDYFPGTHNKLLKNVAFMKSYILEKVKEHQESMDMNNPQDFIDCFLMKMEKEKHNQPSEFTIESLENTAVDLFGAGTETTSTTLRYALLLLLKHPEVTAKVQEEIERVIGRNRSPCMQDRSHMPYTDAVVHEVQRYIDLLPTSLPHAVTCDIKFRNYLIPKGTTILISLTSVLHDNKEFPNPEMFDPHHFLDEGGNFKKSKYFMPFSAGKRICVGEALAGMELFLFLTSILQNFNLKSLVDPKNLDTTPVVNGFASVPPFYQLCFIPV

CYP2E1 = CYP2E1 (Homo sapiens, UniProt P05181); assay: CYP inhibition: CYP2E1; assay type: in vitro ADME; conditions: I-57 concentrations of up to 100 μM
Sequence of CYP2E1 (P05181 whole entry): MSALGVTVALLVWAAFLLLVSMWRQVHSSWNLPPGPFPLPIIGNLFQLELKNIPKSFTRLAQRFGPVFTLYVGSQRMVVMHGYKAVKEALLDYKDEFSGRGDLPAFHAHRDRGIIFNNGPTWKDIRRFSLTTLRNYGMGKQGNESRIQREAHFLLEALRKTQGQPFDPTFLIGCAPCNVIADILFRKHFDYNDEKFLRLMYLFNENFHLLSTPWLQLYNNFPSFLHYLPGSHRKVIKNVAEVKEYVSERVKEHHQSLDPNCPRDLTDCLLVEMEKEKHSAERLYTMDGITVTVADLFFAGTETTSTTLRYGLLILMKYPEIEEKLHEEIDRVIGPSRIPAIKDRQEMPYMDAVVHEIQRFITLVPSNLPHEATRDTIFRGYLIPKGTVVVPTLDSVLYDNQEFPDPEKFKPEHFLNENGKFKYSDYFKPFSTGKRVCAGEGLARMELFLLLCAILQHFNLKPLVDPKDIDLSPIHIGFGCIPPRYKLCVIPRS

CYP3A [6] = assay: CYP inhibition: CYP3A; assay type: in vitro ADME; conditions: I-57 concentrations of up to 100 μM
CYP2C9 [7] = biological target: T1, CYP2C9; assay: Time-dependent CYP inhibition: CYP2C9; assay type: in vitro ADME; conditions: I-57 concentrations of up to 100 μM
CYP3A [8] = assay: Time-dependent CYP inhibition: CYP3A; assay type: in vitro ADME; conditions: I-57 concentrations of up to 100 μM
[9] = Toxicology in rats (5-day and 4-week GLP studies); assay type: in vivo
Source text: (§2) The non-clinical safety profile of I-57 was established in vitro, and in vivo in rats and cynomolgus monkeys in studies up to 4-weeks duration. Based on the outcome of these studies, QTc interval prolongation was identified as the principal safety signal for I-57. There were other toxicities such as diarrhea and vomiting in monkeys, and mortality, clinical signs and target organ toxicities in rats; however, these occurred at exposures far above those expected to result in clinical activity.
Clinical signs, decreases in body weight and food consumption, and clinical pathology changes reflecting inflammation, renal and liver injury, and stress were generally evident in the pre-terminal animals. Kidney toxicity was evident in rats at doses >100 mg/kg/day and was characterized by increased weight, hematuria, proteinuria, with or without increased blood urea and creatinine, degeneration, regeneration and inflammation at 300 mg/kg/day.

[10] = Toxicology studies: CNS and respiratory signs; assay type: in vivo
Source text: as §2

IKZF2 [11] = biological target: IKZF2 (Homo sapiens, UniProt Q96SW2+Q9UKS7); assay: IKZF2 protein levels in total tumor-infiltrating lymphocytes by immunohistochemistry, hPBMC AdT model with MDA-MB231 xenografts (FIG. 8A, 8B); assay type: in vivo; parameters: endogenous in cells; host or cells: primary human PBMCs; conditions: 24 h post the 14th daily dose
Sequence of IKZF2 (Homo sapiens, UniProt Q96SW2+Q9UKS7) (Q9UKS7 whole entry): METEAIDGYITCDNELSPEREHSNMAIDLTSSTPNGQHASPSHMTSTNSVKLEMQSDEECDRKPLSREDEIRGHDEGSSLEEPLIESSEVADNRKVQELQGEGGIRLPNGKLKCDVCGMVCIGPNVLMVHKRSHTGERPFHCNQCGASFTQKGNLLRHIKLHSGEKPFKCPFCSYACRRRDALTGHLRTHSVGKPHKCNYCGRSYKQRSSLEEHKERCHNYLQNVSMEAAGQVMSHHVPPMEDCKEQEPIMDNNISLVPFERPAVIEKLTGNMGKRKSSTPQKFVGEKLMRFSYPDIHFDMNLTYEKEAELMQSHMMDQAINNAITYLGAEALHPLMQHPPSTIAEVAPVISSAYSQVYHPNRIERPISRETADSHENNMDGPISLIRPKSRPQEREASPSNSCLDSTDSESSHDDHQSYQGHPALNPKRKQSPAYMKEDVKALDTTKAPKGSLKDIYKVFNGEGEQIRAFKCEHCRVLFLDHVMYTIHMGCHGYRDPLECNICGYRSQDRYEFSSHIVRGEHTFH
Sequence of IKZF2 (Homo sapiens, UniProt Q96SW2+Q9UKS7) (Q96SW2 whole entry): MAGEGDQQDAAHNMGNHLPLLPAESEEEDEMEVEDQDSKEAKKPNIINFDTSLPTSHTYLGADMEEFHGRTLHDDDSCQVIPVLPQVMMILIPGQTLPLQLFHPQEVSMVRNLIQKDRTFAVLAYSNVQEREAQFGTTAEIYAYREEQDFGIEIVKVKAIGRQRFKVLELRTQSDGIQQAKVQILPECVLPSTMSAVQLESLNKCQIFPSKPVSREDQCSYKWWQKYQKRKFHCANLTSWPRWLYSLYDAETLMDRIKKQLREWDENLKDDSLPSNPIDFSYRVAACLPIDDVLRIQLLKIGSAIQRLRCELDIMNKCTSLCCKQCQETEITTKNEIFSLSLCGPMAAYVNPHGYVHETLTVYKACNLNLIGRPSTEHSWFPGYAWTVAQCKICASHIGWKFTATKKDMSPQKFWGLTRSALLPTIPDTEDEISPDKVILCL
Sequence of IKZF2 (Homo sapiens, UniProt Q96SW2+Q9UKS7) (Q16531 whole entry partner): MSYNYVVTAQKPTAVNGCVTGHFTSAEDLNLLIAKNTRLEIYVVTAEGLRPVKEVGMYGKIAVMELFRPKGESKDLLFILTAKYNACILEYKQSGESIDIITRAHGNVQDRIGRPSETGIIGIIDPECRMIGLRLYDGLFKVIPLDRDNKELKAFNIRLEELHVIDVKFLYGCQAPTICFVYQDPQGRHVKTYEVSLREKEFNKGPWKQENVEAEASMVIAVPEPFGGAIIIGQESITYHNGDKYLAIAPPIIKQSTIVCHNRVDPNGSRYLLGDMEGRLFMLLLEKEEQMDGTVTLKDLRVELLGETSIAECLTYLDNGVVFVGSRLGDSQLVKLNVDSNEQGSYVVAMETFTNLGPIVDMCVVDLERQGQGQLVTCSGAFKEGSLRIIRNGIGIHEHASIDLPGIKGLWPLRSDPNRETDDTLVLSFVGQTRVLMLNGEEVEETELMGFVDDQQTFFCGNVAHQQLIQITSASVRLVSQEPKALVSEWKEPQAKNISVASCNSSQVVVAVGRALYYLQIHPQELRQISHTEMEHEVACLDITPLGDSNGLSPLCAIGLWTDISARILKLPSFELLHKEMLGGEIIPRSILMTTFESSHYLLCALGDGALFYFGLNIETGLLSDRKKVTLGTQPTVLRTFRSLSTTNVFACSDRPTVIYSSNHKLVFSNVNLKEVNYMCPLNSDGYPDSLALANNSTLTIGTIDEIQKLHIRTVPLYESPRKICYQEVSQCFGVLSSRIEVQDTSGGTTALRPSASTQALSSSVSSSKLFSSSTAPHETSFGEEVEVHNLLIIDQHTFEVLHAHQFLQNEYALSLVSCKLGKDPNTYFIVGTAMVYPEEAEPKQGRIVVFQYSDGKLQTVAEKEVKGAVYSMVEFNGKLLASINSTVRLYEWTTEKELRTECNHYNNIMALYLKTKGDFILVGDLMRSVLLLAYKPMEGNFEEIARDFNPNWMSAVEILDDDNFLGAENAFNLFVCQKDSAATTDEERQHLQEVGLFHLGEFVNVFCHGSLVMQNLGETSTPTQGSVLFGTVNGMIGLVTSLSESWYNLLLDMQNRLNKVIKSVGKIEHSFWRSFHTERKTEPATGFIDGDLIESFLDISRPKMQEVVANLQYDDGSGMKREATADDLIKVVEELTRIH
Method: FIG. 6 is a pictorial representation of the multi-dose PK/PD study design in the human PBMC adoptive transfer mouse model harboring MDA-MB231 xenografts. Fourteen consecutive daily doses of Compound I-57 was administered at 0.3 mg/kg, 1 mg/kg, 3 mg/kg or 30 mg/kg.
FIG. 8A is a bar graph showing the change in the IKZF2 protein levels in total tumor-infiltrating lymphocytes by immunohistochemistry (IHC) at 24 h post the 14th daily dose of 1, 3 or 30 mg/kg Compound I-57.

[12] = 0.1 mg/kg/day, Day 5, Group 2 (only I-57), 0.1 mg/kg/day oral
[13] = 0.1 mg/kg/day, Day 5, Group 4 (I-57 + KLH + adjuvant), 0.1 mg/kg/day oral
[14] = 0.1 mg/kg/day, Day 29, Group 2 (only I-57), 0.1 mg/kg/day oral
[15] = 0.1 mg/kg/day, Day 29, Group 4 (I-57 + KLH + adjuvant), 0.1 mg/kg/day oral
[16] = 3 mg/kg/day, Day 5, Group 5 (I-57 + KLH + adjuvant), 3 mg/kg/day oral
[17] = 3 mg/kg/day, Day 29, Group 5 (I-57 + KLH + adjuvant), 3 mg/kg/day oral
[18] = Day 5, Group 2 (only I-57), 0.1 mg/kg/day oral
[19] = Day 5, Group 4 (I-57 + KLH + adjuvant), 0.1 mg/kg/day oral
[20] = Day 5, Group 5 (I-57 + KLH + adjuvant), 3 mg/kg/day oral
[21] = Day 29, Group 2 (only I-57), 0.1 mg/kg/day oral
[22] = Day 29, Group 4 (I-57 + KLH + adjuvant), 0.1 mg/kg/day oral
[23] = Day 29, Group 5 (I-57 + KLH + adjuvant), 3 mg/kg/day oral

## O=C1CCC(N2Cc3cc(C4CCN(Cc5ccccc5)CC4)ccc3C2=O)C(=O)N1 (centres unmarked) [Compound I-57, 3-(5-(1-benzylpiperidin-4-yl)-1-oxoisoindolin-2-yl)piperidine-2,6-dione]
IKZF2 [1]
  degradation of IKZF2: Degradation was observed
[2]; [12]
  Cmax: 7.1 ng/mL
  AUC(0-t): 56.8 ng·h/mL
[2]; [13]
  Cmax: 11 ng/mL
  AUC(0-t): 63.5 ng·h/mL
[2]; [14]
  Cmax: 13.1 ng/mL
  AUC(0-t): 78.1 ng·h/mL
[2]; [15]
  Cmax: 18 ng/mL
  AUC(0-t): 96.4 ng·h/mL
[2]; [16]
  Cmax: 523 ng/mL
  AUC(0-t): 2840 ng·h/mL
[2]; [17]
  Cmax: 504 ng/mL
  AUC(0-t): 3460 ng·h/mL
[2]; [18]
  AUC0-24/D: 567 (ng · h/mL)/(mg/kg)
  Cmax/D: 71.0 (ng/mL)/(mg/kg)
[2]; [19]
  AUC0-24/D: 634 (ng · h/mL)/(mg/kg)
  Cmax/D: 110 (ng/mL)/(mg/kg)
[2]; [20]
  AUC0-24/D: 946 (ng · h/mL)/(mg/kg)
  Cmax/D: 175 (ng/mL)/(mg/kg)
[2]; [21]
  AUC0-24/D: 782 (ng · h/mL)/(mg/kg)
  Cmax/D: 131 (ng/mL)/(mg/kg)
[2]; [22]
  AUC0-24/D: 965 (ng · h/mL)/(mg/kg)
  Cmax/D: 180 (ng/mL)/(mg/kg)
[2]; [23]
  AUC0-24/D: 1150 (ng · h/mL)/(mg/kg)
  Cmax/D: 169 (ng/mL)/(mg/kg)
IKZF2 [3]; 0.1 mg/kg dose level, repeated daily
  IKZF2 degradation: profound
IKZF2 [3]; repeated daily oral doses
  time after initiation of treatment to steady-state level of IKZF2: approximately 72 h
IKZF2 [3]; repeated daily oral doses of 0.1 and 3 mg/kg
  time after the first dose at which IKZF2 degradation was detected: 24 h
[4]; above 100 mg/kg
  dose proportionality of AUC: less than dose proportional
[4]; between 10 mg/kg and 100 mg/kg
  dose proportionality of AUC: slightly over-proportional
[4]; cynomolgus monkey, blood, po
  bioavailability: 89%
Plasma protein
  binding to plasma protein: 76%
P-gp
  P-gp substrate status: P-gp substrate
CYP2C9 [5]
  inhibition of CYP2C9: very little and no inhibition
CYP2E1
  inhibition of CYP2E1: very little and no inhibition
CYP3A [6]
  inhibition of CYP3A: very little and no inhibition
CYP2C9 [7]
  time-dependent inhibition of CYP2C9: no apparent time-dependent inhibition
CYP3A [8]
  time-dependent inhibition of CYP3A: no apparent time-dependent inhibition
[9]; rat, in vivo
  reversibility of findings: fully reversed or showed ongoing recovery
[9]; rat, in vivo, 300 mg/kg/day
  stomach findings: mucosal hyperplasia, inflammation and degeneration in the stomach
  urinary bladder findings: Degenerative changes were present in the urinary bladder
[9]; rats
  dose at which kidney toxicity was evident: > 100 mg/kg/day
[9]; rats, females
  dose at which mortality occurred: > 300 mg/kg/day
[9]; rats, males
  dose at which mortality occurred: 1000 mg/kg
[10]
  CNS or respiratory signs: no CNS or respiratory signs
IKZF2 [11]; 30 mg/kg
  maximal level of IKZF2 degradation in total tumor-infiltrating lymphocytes (IHC): approximately 85%
IKZF2 [11]; 1, 3 and 30 mg/kg doses
  reduction in IKZF2 levels in total tumor-infiltrating lymphocytes (IHC): Robust reduction
